Where only a bound is given, the exact number is not on record here.

Here are results for 1 molecule from patent publication US6924302B2, “Substituted triazole diamine derivatives as kinase inhibitors” (Ortho McNeil Pharmaceutical, Inc., priority 2000, dated 2005).

Assay [1] deals with T1, Casein Kinase 1 (CK1 delta isoform) (Rattus norvegicus, UniProt Q06486).
T1 construct: a truncation at amino acid 318 of the C-terminal portion of the rat CK1 delta isoform; purchased New England Biolabs 6030; host or cells: E. coli
T1 sequence (Q06486 1-317): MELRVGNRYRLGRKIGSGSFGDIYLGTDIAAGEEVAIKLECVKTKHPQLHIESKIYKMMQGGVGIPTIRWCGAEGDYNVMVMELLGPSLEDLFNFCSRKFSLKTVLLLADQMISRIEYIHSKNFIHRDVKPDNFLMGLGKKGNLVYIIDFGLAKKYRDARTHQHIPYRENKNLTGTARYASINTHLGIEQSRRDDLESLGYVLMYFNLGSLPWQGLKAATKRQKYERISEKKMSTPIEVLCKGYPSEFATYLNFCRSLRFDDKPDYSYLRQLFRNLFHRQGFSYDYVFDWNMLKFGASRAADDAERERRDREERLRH
Description: Kinase Selectivity Assay Casein Kinase 1. It is filed as biochemical. Conditions: Tables 2a-2k, read-out: Caseine Kinase 1 IC50. The method, boiled down: (§1)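 Biotinylated peptide phosphorylation measured as ^33P-γ-ATP incorporation on streptavidin plates after 1 h at 30° C, 1% DMSO final, enzyme in 50 mM Tris-HCl pH 8.0, 0.1% BSA. Compounds in duplicate at 8 concentrations, 100 uM to 10 pM. IC50 from percent inhibition versus log concentration.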

The subject of assay [2] is HCT-116 colon carcinoma. Description: Inhibition of Cell Proliferation (14C-thymidine incorporation), HCT-116. Conditions: Homo sapiens, HCT-116 cell line. The format is cell-based. The procedure, abridged:
(§2)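 Cells seeded 3000–8000 per well on scintillating plates, grown 24 h, then exposed to compound in DMSO for 24 h before 0.2 μCi/well methyl-14C-thymidine was added for a further 24 h with drug, 37° C., 5% CO2. Proliferation measured as thymidine incorporation into DNA by scintillation counting after PBS washes.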

Assay [3] addresses Insulin Receptor Kinase (Homo sapiens, UniProt P06213). The assay can be described thus: Kinase Selectivity Assay Insulin Receptor Kinase. It is filed as biochemical. Particulars: Kinase Selectivity, Tables 2a-2k; read-out: Insulin R Kinase IC50. The method, boiled down: as §1
The subject of assay [4] is A375 malignant melanoma. Description: Inhibition of Cell Proliferation (14C-thymidine incorporation), A375. It is filed as cell-based. Particulars: Homo sapiens, A-375, A375 cell line. The procedure, abridged: as §2
In general terms: Dividing cells build labelled thymidine or BrdU into new DNA.

Assay [5] concerns PC-3 prostate adenocarcinoma. Description: Inhibition of Cell Proliferation (14C-thymidine incorporation), PC-3. It is filed as cell-based. Conditions: Homo sapiens, PC-3 cell line. The procedure, abridged: as §2
The target in assay [6] is T2, Protein Kinase A (Bos taurus, UniProt P00517).
T2 construct: purified from bovine heart; purchased Upstate Biotech 14-114; host or cells: bovine heart
Description: Kinase Selectivity Assay Protein Kinase A. It is filed as biochemical, bovine. Conditions: Kinase Selectivity, Tables 2a-2k; read-out: PKA IC50. The procedure, abridged: as §1

Assay [7] deals with HeLa cervical adenocarcinoma. The assay can be described thus: Inhibition of Cell Proliferation (14C-thymidine incorporation), HeLa. The format is cell-based. Conditions: Homo sapiens, HeLa cell line. The procedure, abridged:
as §2

Assay [8] addresses T3, Casein Kinase 2 (alpha and beta subunits) (Homo sapiens, UniProt P68400).
T3 construct: purchased New England Biolabs 6010; host or cells: E. coli
Description: Kinase Selectivity Assay Casein Kinase 2. Conditions: Kinase Selectivity, Tables 2a-2k; read-out: Caseine Kinase 2 IC50. The format is biochemical. The method, boiled down:
as §1

Chain of Insulin Receptor Kinase (P06213 980-1352): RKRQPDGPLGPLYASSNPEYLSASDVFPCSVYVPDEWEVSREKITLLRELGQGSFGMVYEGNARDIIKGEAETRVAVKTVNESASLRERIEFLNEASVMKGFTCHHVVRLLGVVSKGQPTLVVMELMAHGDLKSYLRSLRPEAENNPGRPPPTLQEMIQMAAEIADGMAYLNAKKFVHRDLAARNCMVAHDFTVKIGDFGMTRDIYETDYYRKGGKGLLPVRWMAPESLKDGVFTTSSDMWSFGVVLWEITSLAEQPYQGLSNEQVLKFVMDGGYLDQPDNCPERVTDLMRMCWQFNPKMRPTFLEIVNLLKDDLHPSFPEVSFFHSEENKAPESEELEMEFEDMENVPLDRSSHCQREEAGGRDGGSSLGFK
T3 sequence (P68400 whole entry): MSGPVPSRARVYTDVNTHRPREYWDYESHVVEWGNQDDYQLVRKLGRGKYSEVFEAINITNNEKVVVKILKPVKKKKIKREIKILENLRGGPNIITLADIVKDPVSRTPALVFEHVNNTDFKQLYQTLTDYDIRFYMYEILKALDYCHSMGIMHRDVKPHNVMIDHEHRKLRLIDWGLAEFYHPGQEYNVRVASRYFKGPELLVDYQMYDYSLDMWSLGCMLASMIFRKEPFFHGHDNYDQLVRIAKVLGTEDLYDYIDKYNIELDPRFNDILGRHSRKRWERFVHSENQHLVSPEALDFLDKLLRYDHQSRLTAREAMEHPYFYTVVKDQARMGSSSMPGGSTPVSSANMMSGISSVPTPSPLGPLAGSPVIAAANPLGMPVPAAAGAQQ
T3 sequence (P67870 whole entry partner): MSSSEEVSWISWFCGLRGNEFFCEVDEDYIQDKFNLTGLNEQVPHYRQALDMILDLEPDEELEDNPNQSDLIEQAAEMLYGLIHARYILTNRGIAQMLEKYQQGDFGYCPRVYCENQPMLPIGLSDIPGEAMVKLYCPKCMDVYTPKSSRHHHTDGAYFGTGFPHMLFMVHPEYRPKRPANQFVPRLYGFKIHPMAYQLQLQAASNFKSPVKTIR

For the molecule `CNS(=O)(=O)c1ccc(Nc2nc(N)n(C(=O)c3c(F)ccc(C)c3F)n2)cc1` [Cpd 81, 4-[[5-amino-1-(2,6-difluoro-3-methylbenzoyl)-1H-1,2,4-triazol-3-yl]amino]-N-methyl-benzenesulfonamide], the IC50 was 6.96 µM in assay [1]; 778 nM in assay [2]; 29.6 µM in assay [3]; 1770 nM in assay [4]; 25 nM in assay [5]; more than 100 µM in assay [6]. Also, the IC50 in assay [7] was 189 nM; in assay [8] it was more than 100 µM.

Broadly, the IC50 is the concentration needed to halve the response being measured.
